Data as given in ChEMBL document CHEMBL5608215, “Development of amphipathic derivatives of thymol and carvacrol as potent broad-spectrum antibacterial agents” (Eur J Med Chem, 2024).
Active and inactive are the calls of the source. The calls are words filed in the database; no cut-off is given here.

What was measured:
[1] = test system: Staphylococcus aureus; assay: Antibacterial activity against Staphylococcus aureus ATCC29213 infected in mouse model assessed as bacterial load reduction in abscesses at 10 mg/kg, sc measured after 24 hrs relative to control; type: functional; parameters: scale not given: the % may be the effect or the level left
[2] = test system: Pseudomonas aeruginosa; assay: Anti-biofilm activity against Pseudomonas aeruginosa ATCC27853 assessed as biofilm formation rate at 8 times MIC incubated for 48 hrs by crystal violet staining based analysis relative to control; type: functional
[3] = test system: Staphylococcus aureus; assay: Antibacterial activity against Staphylococcus aureus ATCC29213 infected in mouse model assessed as uniform smooth skin at 5 to 10 mg/kg, sc measured after 24 hrs; type: functional, organism-based; settings: dose 5-10 mg/kg
[4] = test system: Escherichia coli; assay: Bactericidal activity against Escherichia coli ATCC25922 assessed as log reduction in bacterial growth at MIC incubated for 12 hrs by time-kill assay; type: functional
[5] = test system: Staphylococcus aureus; assay: Antibacterial activity against Staphylococcus aureus ATCC29213 assessed as leakage of cell contents at 8 times MIC by SEM analysis; type: functional, organism-based
[6] = test system: Enterococcus faecalis; assay: Antibacterial activity against Enterococcus faecalis ATCC29212 by CLSI based serial dilution method; type: functional
[7] = test system: Staphylococcus aureus; assay: Antibacterial activity against Staphylococcus aureus ATCC29213 infected in mouse model assessed as bacterial load reduction in abscesses at 5 mg/kg, sc measured after 24 hrs relative to control; type: functional; parameters: scale not given: the % may be the effect or the level left
[8] = test system: Staphylococcus aureus; assay: Bactericidal activity against Staphylococcus aureus ATCC29213 at 8 times MIC incubated for 24 hrs by time-kill assay relative to control; type: functional
[9] = Toxicity in KM mouse assessed as damage in lung upto 40 mg/kg, ip measured for 24 hrs by H and E staining based analysis; type: organism-based; settings: in vivo
[10] = test system: Staphylococcus aureus; assay: Antibacterial activity against Staphylococcus aureus ATCC29213 infected in mouse model assessed as reduction in inflammatory factors in skin at 5 to 10 mg/kg, sc measured after 24 hrs by H and E staining based analysis; type: functional, organism-based; settings: dose 5-10 mg/kg
[11] = test system: Staphylococcus aureus; assay: Antibacterial activity against Staphylococcus aureus ATCC29213 infected in mouse model assessed as bacterial load in abscesses at 5 mg/kg, sc measured after 24 hrs; type: functional
[12] = test system: Staphylococcus aureus; assay: Antibacterial activity against Staphylococcus aureus ATCC25923 upto 32 ug/ml incubated for 16 to 18 hrs in presence of phosphatidylglycerol; type: functional, organism-based; settings: dose <= 32.0 µg/ml, time 16-18 hrs
[13] = Selectivity index, ratio of HC50 against rabbit RBC for to MIC for Escherichia coli ATCC25922; type: toxicity; settings: rabbit red blood cells, pooled result: one value given for 6 cell lines, strains, targets or settings, read-out: Selectivity Index
[14] = Toxicity in KM mouse assessed as damage in heart upto 40 mg/kg, ip measured for 24 hrs by H and E staining based analysis; type: organism-based; settings: in vivo

CCCCCCCNC(=O)C[N+](C)(C)CCCCOc1cc(C)ccc1C(C)C.[Br-]
Activity [1]: 99.65%
Activity [2]: 22.3%
Activity [3]: Active
Activity [4]: >4 log10CFU/ml
Activity [5]: Active
MIC [6]: 1 µg/mL
Activity [7]: 99.27%
Activity [8]: >99.9%
Activity [9]: Non-Toxic
Activity [10]: Active
Activity [11]: 2.14 log10CFU/g
Activity [12]: inactive
selectivity ratio [13]: 59
Activity [14]: Non-Toxic
